Laboratory results as given in patent US8343959B2, “N-phenyl-(piperazinyl or homopiperazinyl)-benzenesulfonamide or benzenesulfonyl-phenyl-(piperazine or homopiperazine) compounds suitable for treating disorders that respond to modulation of the serotonin 5-HT6 receptor” (Abbott GmbH & Co. KG, priority 2009, dated 2013).
Counter-ions that a name gives are not always drawn.

These compounds were tested against T1, h-5-HT6 receptor (Homo sapiens, UniProt P50406) (assay: 5-HT6 receptor binding assay (displacement of [3H]-LSD)). Details: not given.
T1 construct: expressed in transfected cells
T1 sequence (P50406 whole entry): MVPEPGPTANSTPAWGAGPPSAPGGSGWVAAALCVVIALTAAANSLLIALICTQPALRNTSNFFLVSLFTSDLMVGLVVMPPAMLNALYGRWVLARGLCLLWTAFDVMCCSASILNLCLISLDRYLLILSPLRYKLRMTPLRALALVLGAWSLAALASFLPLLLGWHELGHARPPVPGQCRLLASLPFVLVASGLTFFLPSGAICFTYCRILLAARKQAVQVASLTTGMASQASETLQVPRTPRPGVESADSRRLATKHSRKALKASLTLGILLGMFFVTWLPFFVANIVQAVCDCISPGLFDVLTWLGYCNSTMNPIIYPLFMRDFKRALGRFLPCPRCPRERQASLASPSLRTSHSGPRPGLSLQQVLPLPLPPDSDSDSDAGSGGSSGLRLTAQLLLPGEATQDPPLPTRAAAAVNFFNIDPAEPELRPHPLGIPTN
Procedure: Displacement of Radioligands Binding to The Following Cloned Human Receptors
Cells from stable clonal cell lines expressing the corresponding receptor (5-HT6, α1-adrenergic, dopamine D2 or histamine H1 receptors) were washed with PBS (w/o Ca^++, Mg^++) and harvested in PBS with 0.02% EDTA. The cells were collected by centrifugation at 500 g for 10 min. at 4° C., washed with PBS and centrifuged (500 g, 10 min. 4° C.). The pellets were stored at −80° C. until use. For membrane preparation, the thawed cell pellet was resuspended in ice-cold sucrose buffer (0.25 M sucrose, 10 mM Hepes (pH 7.4), 1 mM Phenylmethylsulfonyl fluoride (PMSF) in DMSO, 5 μg/ml Pepstatin-A, 3 mM EDTA, 0.025% Bacitracin) and homogenized with a Branson Sonifier W-250 (Settings: Timer 4; Output Control 3; Duty Cycle constant; 2 to 3 cycles). Cell disruption was checked with the aid of a microscope. Remaining unbroken cells were pelleted at 1.000 g for 10 min. at 4° C. The sucrose buffer supernatant was then centrifuged at 60.000 g for 1 h at 4° C. (Beckman Ultrazentrifuge XL 80). The pellet was resuspended in 30 ml ice-cold Tris buffer (20 mM TRIS (pH 7.4), 5 μg/ml Pepstatin A, 0.1 mM PMSF, 3 mM EDTA) by pipetting through a 10 ml serological pipet and centrifuged for 1 h at 4° C. at 60.000 g. A final resuspension was performed in a small volume of ice-cold Tris buffer (see above) by pressing through a serological pipet followed by ultrasonic treatment with a Branson Sonifier W-250 (Settings: Timer 1; Output Control 3; Duty Cycle constant; 1 cycle). Protein concentration was determined (BCA-Kit; Pierce) and aliquots stored at −80° C. or in liquid nitrogen for long-term storage.
All receptor binding experiments were carried out in the corresponding assay buffer in a total volume of 200 μl in the presence of various concentrations of test compound (10^−5 M to 10^−9 M, tenfold serial dilution, duplicate determinations). The assays were terminated by filtration on polyethylenimine (PEI 0.1% or 0.3%) presoaked Packard Unifilter Plates (GF/C or GF/B) with a Tomtec Machin U 96 well-plate harvester. After the plates had been dried for 2 h at 55° C. in a drying chamber scintillation cocktail (BetaPlate Scint; PerkinElmer) was added. Radioactivity was measured in a Microbeta Trilux two hours after the addition of the scintillation mixture. Data derived from liquid scintillation counting were analysed by iterative non-linear regression analysis with the use of the Statistical Analysis System (SAS): a program similar to “LIGAND” as described by Munson and Rodbard (Analytical Biochemistry 107, 220-239 (1980).
HEK293 cells stably expressing the h-5-HT6 receptor (NCBI Reference Sequence XM 001435) were cultured in RPMI1640 medium supplemented with 25 mM HEPES, 10% fetal calf serum and 1-2 mM glutamine. The membrane preparation was performed as described in section 1. […] Non-specific binding was defined with 1 μM methiothepin. The binding reaction was carried out for 3.5 h at room temperature. During the incubation, the plates were shaken on a plate shaker at 100 rpm and terminated by filtration on Packard Unifilter GF/C (0.1% PEI) plates, followed by 2 wash cycles with ice-cold 50 mM Tris-HCl, 5 mM CaCl2.
Data derived from liquid scintillation counting were analyzed by iterative non-linear regression analysis with the use of the Statistical Analysis System (SAS): a program similar to “LIGAND” as described by Munson and Rodbard (Anal. Biochem. 1980, 107, 220-239). Fitting was performed according to formulae described by Feldman (Anal. Biochem. 1972, 48, 317-338). IC50, nH and Ki values were expressed as geometrical mean.

Row | SMILES | Ki [nM]
1 | COc1ccc(S(=O)(=O)c2cccc(OC(F)F)c2)cc1N1CCNCC1 [Example 47, 1-[5-(3-Difluoromethoxy-benzenesulfonyl)-2-methoxy-phenyl]-piperazine hydrochloride] | < 10

Same assay, conditions: membranes of HEK293 cells expressing h-5-HT6 receptor, 1 nM [3H]-LSD; read-out: Ki (5HT6)

Row | Ki [nM] | SMILES
2 | < 50 | Cc1ccc(S(=O)(=O)Nc2ccccc2OC(F)F)cc1N1CCN(C)CC1 [Example 5, N-(2-Difluoromethoxy-phenyl)-4-methyl-3-(4-methyl-piperazin-1-yl)-benzenesulfonamide hydrochloride]
3 | < 50 | COc1ccc(OC(F)F)c(NS(=O)(=O)c2ccc(C)c(N3CCNCC3)c2)c1 [Example 81, N-(2-Difluoromethoxy-5-methoxy-phenyl)-4-methyl-3-piperazin-1-yl-benzenesulfonamide hydrochloride]
4 | < 10 | CCN(c1cccc(OC(F)F)c1)S(=O)(=O)c1ccc(OC)c(N2CCNCC2)c1 [Example 29, N-(3-Difluoromethoxy-phenyl)-N-ethyl-4-methoxy-3-piperazin-1-yl-benzenesulfonamide hydrochloride]
5 | < 10 | Cc1ccc(OC(F)F)c(NS(=O)(=O)c2ccc(C)c(N3CCN(C)CC3)c2)c1 [Example 92, N-(2-Difluoromethoxy-5-methyl-phenyl)-4-methyl-3-(4-methyl-piperazin-1-yl)-benzenesulfonamide hydrochloride]
6 | < 50 | Cc1ccc(NS(=O)(=O)c2ccc(C)c(N3CCNCC3)c2)cc1OC(F)F [Example 6, N-(3-Difluoromethoxy-4-methyl-phenyl)-4-methyl-3-piperazin-1-yl-benzene-sulfonamide hydrochloride]
7 | < 500 | Cc1ccc(NS(=O)(=O)c2ccc(C)c(N3CCCN(C)CC3)c2)cc1OC(F)F [Example 99, N-(3-Difluoromethoxy-4-methyl-phenyl)-4-methyl-3-(4-methyl-[1,4]diazepan-1-yl)-benzenesulfonamide hydrochloride]
8 | < 10 | Cc1ccc(S(=O)(=O)Nc2cccc(OC(F)F)c2)cc1N1CCN(C)CC1 [Example 94, N-(3-Difluoromethoxy-phenyl)-4-methyl-3-(4-methyl-piperazin-1-yl)-benzenesulfonamide hydrochloride]
9 | < 500 | COc1ccc(NS(=O)(=O)c2ccc(C)c(N3CCN(C)CC3)c2)cc1OC(F)F [Example 86, N-(3-Difluoromethoxy-4-methyoxy-phenyl)-4-methyl-3-(4-methyl-piperazin-1-yl)-benzenesulfonamide hydrochloride]
10 | < 50 | Cc1ccc(S(=O)(=O)Nc2ccc3c(c2)OC(F)(F)O3)cc1N1CCNCC1 [Example 84, N-(2,2-Difluoro-benzo[1,3]dioxol-5-yl)-4-methyl-3-piperazin-1-yl-benzenesulfonamide hydrochloride]
11 | < 10 | COc1ccc(S(=O)(=O)Nc2ccc3c(c2)OC(F)(F)O3)cc1N1CCNCC1 [Example 83, N-(2,2-Difluoro-benzo[1,3]dioxol-5-yl)-4-methoxy-3-piperazin-1-yl-benzenesulfonamide hydrochloride]
12 | < 50 | COc1ccc(OC(F)F)c(NS(=O)(=O)c2ccc(C)c(N3CCN(C)CC3)c2)c1 [Example 78, N-(2-Difluoromethoxy-5-methoxy-phenyl)-4-methyl-3-(4-methyl-piperazin-1-yl)-benzenesulfonamide trifluoroacetate]
13 | < 50 | Cc1ccc(S(=O)(=O)N(CC2CC2)c2cccc(OC(F)F)c2)cc1N1CCNCC1 [Example 10, N-Cyclopropylmethyl-N-(3-difluoromethoxy-phenyl)-4-methyl-3-piperazin-1-yl-benzenesulfonamide hydrochloride]
14 | < 10 | O=S(=O)(Nc1cccc(OC(F)F)c1)c1cccc(N2CCNCC2)c1 [Example 68, N-(3-Difluoromethoxy-phenyl)-3-piperazin-1-yl-benzenesulfonamide hydrochloride]
15 | < 10 | CCc1ccc(S(=O)(=O)Nc2cc(C)ccc2OC(F)F)cc1N1CCNCC1 [Example 65, N-(2-Difluoromethoxy-5-methyl-phenyl)-4-ethyl-3-piperazin-1-yl-benzenesulfonamide hydrochloride]
